What all share (type): biochemical
Experiment [1] has as its target T1, CDK7 (Homo sapiens, UniProt P50613).
T1 construct: purchased Carna Biosciences, Inc. 04-108
The experiment can be described thus: CDK7 enzyme inhibition test. As to conditions: [γ-33P]ATP, MBP substrate, 60 min preincubation at 25°C; Ki=IC50/(1+S/Km); read-out: Ki value of CDK7 inhibitory activity. The essentials: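 Commercial human CDK7 with myelin basic protein substrate in HEPES pH 7.4 buffer with DTT, Triton X-100, MgCl2; compound preincubated 60 min at 25° C, then reaction run 20 min at 30° C after adding [γ-^33P]ATP (500 μM solution). TCA-precipitated ^33P-MBP counted by scintillation; IC50 converted to Ki via Ki=IC50/(1+S/Km).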

Experiment [2] addresses T2, CDK2 (Homo sapiens, UniProt P24941).
T2 construct: purchased Invitrogen Corp. PV3267
The experiment can be described thus: CDK2 enzyme inhibition test. As to conditions: [γ-33P]ATP, MBP substrate; Ki=IC50/(1+S/Km); read-out: Ki value of CDK2 inhibitory activity. The essentials: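 Commercial CDK2 phosphorylated MBP with [γ-33P]ATP (500 μM solution before mixing) in HEPES pH 7.4 buffer with DTT, Triton X-100 and MgCl2 for 20 min at 30 °C. TCA-precipitated 33P-MBP was counted by scintillation to give the IC50. Ki = IC50/(1+S/Km), with S the ATP concentration in the reaction.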

For experiment [3], the target named is T3, PLK1 (Homo sapiens, UniProt P53350).
T3 construct: purchased Carna Biosciences, Inc. 05-157
The experiment can be described thus: PLK1 enzyme (polo-like kinase) inhibition test. As to conditions: [γ-33P]ATP, casein substrate; Ki=IC50/(1+S/Km); read-out: Ki value of PLK1 inhibitory activity. The essentials: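 Recombinant PLK1 phosphorylates casein with [γ-^33P]ATP in MOPS buffer (pH 7.0) containing DTT and magnesium acetate, 20 min at 30° C. Reaction stopped with TCA; washed precipitate counted by liquid scintillation. IC50 for inhibition of ^33P incorporation into casein, converted to Ki via Ki=IC50/(1+S/Km).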

As usually defined, the Ki is a measure of affinity in units of concentration, obtained from inhibition or displacement.

T1 sequence (P50613 whole entry): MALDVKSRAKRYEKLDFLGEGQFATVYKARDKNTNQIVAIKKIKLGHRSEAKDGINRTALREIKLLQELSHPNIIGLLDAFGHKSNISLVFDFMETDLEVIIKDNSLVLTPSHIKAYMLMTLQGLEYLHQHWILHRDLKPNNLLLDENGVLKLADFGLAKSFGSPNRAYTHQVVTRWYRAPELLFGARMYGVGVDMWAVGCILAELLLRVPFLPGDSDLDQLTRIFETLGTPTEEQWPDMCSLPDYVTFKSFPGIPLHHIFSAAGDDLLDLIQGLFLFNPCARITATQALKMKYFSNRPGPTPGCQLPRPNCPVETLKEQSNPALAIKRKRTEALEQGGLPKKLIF
T1 sequence (P51946 whole entry partner): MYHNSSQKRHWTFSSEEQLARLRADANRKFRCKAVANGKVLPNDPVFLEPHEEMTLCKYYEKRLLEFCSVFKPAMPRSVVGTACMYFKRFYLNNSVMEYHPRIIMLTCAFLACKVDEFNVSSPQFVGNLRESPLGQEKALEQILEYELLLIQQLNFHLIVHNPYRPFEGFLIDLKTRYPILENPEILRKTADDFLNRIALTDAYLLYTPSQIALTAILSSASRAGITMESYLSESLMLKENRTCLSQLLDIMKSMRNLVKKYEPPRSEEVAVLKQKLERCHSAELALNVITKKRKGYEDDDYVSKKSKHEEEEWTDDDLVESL
T1 sequence (P51948 whole entry partner): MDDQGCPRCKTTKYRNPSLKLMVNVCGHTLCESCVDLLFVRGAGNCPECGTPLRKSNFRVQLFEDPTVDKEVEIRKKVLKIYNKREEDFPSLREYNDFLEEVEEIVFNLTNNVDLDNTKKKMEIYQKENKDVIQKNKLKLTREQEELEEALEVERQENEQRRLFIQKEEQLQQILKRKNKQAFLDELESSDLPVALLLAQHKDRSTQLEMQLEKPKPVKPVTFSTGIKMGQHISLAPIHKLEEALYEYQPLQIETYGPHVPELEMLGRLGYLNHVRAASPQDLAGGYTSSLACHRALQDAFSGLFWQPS
T3 sequence (P53350 whole entry): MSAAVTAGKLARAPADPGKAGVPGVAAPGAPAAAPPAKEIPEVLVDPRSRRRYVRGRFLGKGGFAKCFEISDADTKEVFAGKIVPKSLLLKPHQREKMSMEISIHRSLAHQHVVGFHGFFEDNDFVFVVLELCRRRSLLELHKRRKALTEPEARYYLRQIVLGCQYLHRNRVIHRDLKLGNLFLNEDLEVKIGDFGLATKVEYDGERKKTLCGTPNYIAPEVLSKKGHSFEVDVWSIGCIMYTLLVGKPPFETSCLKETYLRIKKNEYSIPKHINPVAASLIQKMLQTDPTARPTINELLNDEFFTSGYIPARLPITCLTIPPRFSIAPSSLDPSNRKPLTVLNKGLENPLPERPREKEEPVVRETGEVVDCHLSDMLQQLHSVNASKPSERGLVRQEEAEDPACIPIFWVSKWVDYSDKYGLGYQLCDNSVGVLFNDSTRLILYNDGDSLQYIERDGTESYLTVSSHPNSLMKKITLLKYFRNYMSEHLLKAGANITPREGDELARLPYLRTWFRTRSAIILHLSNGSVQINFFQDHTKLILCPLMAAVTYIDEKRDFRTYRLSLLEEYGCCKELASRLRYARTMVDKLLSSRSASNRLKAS

`CC1(C)c2[nH]nc(NC(=O)C3([Si](C)(C)C)CCC3)c2CN1C(=O)Nc1ccccc1F` [IV-3, N-(2-Fluorophenyl)-6,6-dimethyl-3-[1-(trimethylsilyl)cyclobutanecarboxamido]-4,6-dihydropyrrolo[3,4-c]pyrazole-5(1H)-carboxamide]: the Ki in experiment [1] was no more than 50 nM; in experiment [2], no less than 1000 nM; in experiment [3], no less than 5000 nM.

Take `CC1(C)c2[nH]nc(NC(=O)C3([Si](C)(C)C)CCC3)c2CN1C(=O)Nc1ccccc1Br` [IV-15, N-(2-Bromophenyl)-6,6-dimethyl-3-[1-(trimethylsilyl)cyclobutanecarboxamido]-4,6-dihydropyrrolo[3,4-c]pyrazole-5(1H)-carboxamide]: the Ki was no more than 50 nM in experiment [1], no less than 1000 nM in experiment [2] and no less than 5000 nM in experiment [3].

As for `Cc1ccccc1NC(=O)N1Cc2c(NC(=O)C3([Si](C)(C)C)CCC3)n[nH]c2C1(C)C` [IV-21, 6,6-Dimethyl-N-(o-tolyl)-3-[1-(trimethylsilyl)cyclobutanecarboxamido]-4,6-dihydropyrrolo[3,4-c]pyrazole-5(1H)-carboxamide], the Ki was no more than 50 nM in experiment [1], no less than 1000 nM in experiment [2] and no less than 5000 nM in experiment [3].

Consider `CC1(C)c2[nH]nc(NC(=O)C3([Si](C)(C)C)CCC3)c2CN1C(=O)Nc1c(F)cccc1Cl` [IV-113, N-(2-Chloro-6-fluorophenyl)-6,6-dimethyl-3-[1-(trimethylsilyl)cyclobutanecarboxamido]-4,6-dihydropyrrolo[3,4-c]pyrazole-5(1H)-carboxamide], for which the Ki in experiment [1] was no more than 50 nM; in experiment [2], no less than 1000 nM; in experiment [3], no less than 5000 nM.

Regarding `Cc1ccc(F)c(NC(=O)N2Cc3c(NC(=O)C4([Si](C)(C)C)CCC4)n[nH]c3C2(C)C)c1` [IV-127, N-(2-Fluoro-5-methylphenyl)-6,6-dimethyl-3-[1-(trimethylsilyl)cyclobutanecarboxamido]-4,6-dihydropyrrolo[3,4-c]pyrazole-5 (1H)-carboxamide], the Ki in experiment [1] was no more than 50 nM; in experiment [2], no less than 1000 nM; in experiment [3], no less than 5000 nM.

On to `Cc1cccc(F)c1NC(=O)N1Cc2c(NC(=O)C3([Si](C)(C)C)CCC3)n[nH]c2C1(C)C` [IV-129, N-(2-Fluoro-6-methylphenyl)-6,6-dimethyl-3-[1-(trimethylsilyl)cyclobutanecarboxamido]-4,6-dihydropyrrolo[3,4-c]pyrazole-5 (1H)-carboxamide], for which the Ki in experiment [1] is no more than 50 nM; in experiment [2], no less than 1000 nM; in experiment [3], no less than 5000 nM.

On to `CCc1cccc(F)c1NC(=O)N1Cc2c(NC(=O)C3([Si](C)(C)C)CCC3)n[nH]c2C1(C)C` [IV-137, N-(2-Ethyl-6-fluorophenyl)-6,6-dimethyl-3-[1-(trimethylsilyl)cyclobutanecarboxamido]-4,6-dihydropyrrolo[3,4-c]pyrazole-5(1H)-carboxamide], for which the Ki in experiment [1] is no more than 50 nM; in experiment [2], no less than 1000 nM; in experiment [3] it was no less than 5000 nM.

For the molecule `COc1cccc(F)c1NC(=O)N1Cc2c(NC(=O)C3([Si](C)(C)C)CCC3)n[nH]c2C1(C)C` [IV-161, N-(2-Fluoro-6-methoxyphenyl)-6,6-dimethyl-3-[1-(trimethylsilyl)cyclobutanecarboxamido]-4,6-dihydropyrrolo[3,4-c]pyrazole-5(1H)-carboxamide], the Ki is no more than 50 nM in experiment [1], no less than 1000 nM in experiment [2] and no less than 5000 nM in experiment [3].

`CC1(C)c2[nH]nc(NC(=O)C3([Si](C)(C)C)CCC3)c2CN1C(=O)Nc1c(F)cccc1OC(F)F` [IV-169, N-[2-(Difluoromethoxy)-6-fluorophenyl]-6,6-dimethyl-3-[1-(trimethylsilyl)cyclobutanecarboxamido]-4,6-dihydropyrrolo[3,4-c]pyrazole-5(1H)-carboxamide]: the Ki in experiment [1] is no more than 50 nM; in experiment [2], no less than 1000 nM; in experiment [3], no less than 5000 nM.

`CC1(C)c2[nH]nc(NC(=O)C3([Si](C)(C)C)CCC3)c2CN1C(=O)Nc1c(Cl)cccc1Cl` [IV-199, N-(2,6-Dichlorophenyl)-6,6-dimethyl-3-[1-(trimethylsilyl)cyclobutanecarboxamido]-4,6-dihydropyrrolo[3,4-c]pyrazole-5(1H)-carboxamide]: the Ki was no more than 50 nM in experiment [1], no less than 1000 nM in experiment [2] and no less than 5000 nM in experiment [3].

For the molecule `Cc1cccc(Cl)c1NC(=O)N1Cc2c(NC(=O)C3([Si](C)(C)C)CCC3)n[nH]c2C1(C)C` [IV-215, N-(2-Chloro-6-methylphenyl)-6,6-dimethyl-3-[1-(trimethylsilyl)cyclobutanecarboxamido]-4,6-dihydropyrrolo[3,4-c]pyrazole-5 (1H)-carboxamide], the Ki in experiment [1] is no more than 50 nM; in experiment [2], no less than 1000 nM; in experiment [3] it was no less than 5000 nM.

For `COc1cccc(Cl)c1NC(=O)N1Cc2c(NC(=O)C3([Si](C)(C)C)CCC3)n[nH]c2C1(C)C` [IV-247, N-(2-Chloro-6-methoxyphenyl)-6,6-dimethyl-3-[1-(trimethylsilyl)cyclobutanecarboxamido]-4,6-dihydropyrrolo[3,4-c]pyrazole-5(1H)-carboxamide], the Ki in experiment [1] is no more than 50 nM; in experiment [2] it was no less than 1000 nM; in experiment [3], no less than 5000 nM.

In the case of `Cc1cccc(Br)c1NC(=O)N1Cc2c(NC(=O)C3([Si](C)(C)C)CCC3)n[nH]c2C1(C)C` [IV-299, N-(2-Bromo-6-methylphenyl)-6,6-dimethyl-3-[1-(trimethylsilyl)cyclobutanecarboxamido]-4,6-dihydropyrrolo[3,4-c]pyrazole-5 (1H)-carboxamide], the Ki in experiment [1] was no more than 50 nM; in experiment [2], no less than 1000 nM; in experiment [3], no less than 5000 nM.

`Cc1cc(F)ccc1NC(=O)N1Cc2c(NC(=O)C3([Si](C)(C)C)CCC3)n[nH]c2C1(C)C` [IV-359, N-(4-Fluoro-2-methylphenyl)-6,6-dimethyl-3-[1-(trimethylsilyl)cyclobutanecarboxamido]-4,6-dihydropyrrolo[3,4-c]pyrazole-5 (1H)-carboxamide]: the results for the inhibitory constant (Ki) in experiment [1], in experiment [2] and in experiment [3] were no more than 50 nM, no less than 1000 nM and no less than 5000 nM, respectively.

With `Cc1ccc(F)cc1NC(=O)N1Cc2c(NC(=O)C3([Si](C)(C)C)CCC3)n[nH]c2C1(C)C` [IV-361, N-(5-Fluoro-2-methylphenyl)-6,6-dimethyl-3-[1-(trimethylsilyl)cyclobutanecarboxamido]-4,6-dihydropyrrolo[3,4-c]pyrazole-5 (1H)-carboxamide], the Ki is no more than 50 nM in experiment [1], no less than 1000 nM in experiment [2] and no less than 5000 nM in experiment [3].

Turning to `Cc1ccc(C)c(NC(=O)N2Cc3c(NC(=O)C4([Si](C)(C)C)CCC4)n[nH]c3C2(C)C)c1` [IV-379, N-(2,5-Dimethylphenyl)-6,6-dimethyl-3-[1-(trimethylsilyl)cyclobutanecarboxamido]-4,6-dihydropyrrolo[3,4-c]pyrazole-5(1H)-carboxamide], the Ki is no more than 50 nM in experiment [1], no less than 1000 nM in experiment [2] and no less than 5000 nM in experiment [3].

For `CCc1cccc(C)c1NC(=O)N1Cc2c(NC(=O)C3([Si](C)(C)C)CCC3)n[nH]c2C1(C)C` [IV-389, N-(2-Ethyl-6-methylphenyl)-6,6-dimethyl-3-[1-(trimethylsilyl)cyclobutanecarboxamido]-4,6-dihydropyrrolo[3,4-c]pyrazole-5 (1H)-carboxamide], the Ki is no more than 50 nM in experiment [1], no less than 1000 nM in experiment [2] and no less than 5000 nM in experiment [3].

As to `CC1(C)c2[nH]nc(NC(=O)C3([Si](C)(C)C)CCC3)c2CN1C(=O)Nc1c(F)ccc(F)c1F` [IV-597, 6,6-Dimethyl-N-(2,3,6-trifluorophenyl)-3-[1-(trimethylsilyl)cyclobutanecarboxamido]-4,6-dihydropyrrolo[3,4-c]pyrazole-5(1H)-carboxamide], the Ki in experiment [1] is no more than 50 nM; in experiment [2] it was no less than 1000 nM; in experiment [3], no less than 5000 nM.

With `Cc1ccc(C)c(NC(=O)N2Cc3c(NC(=O)C4([Si](C)(C)C)CCC4)n[nH]c3C2(C)C)c1F` [IV-669, N-(2-Fluoro-3,6-dimethylphenyl)-6,6-dimethyl-3-[1-(trimethylsilyl)cyclobutanecarboxamido]-4,6-dihydropyrrolo[3,4-c]pyrazole-5(1H)-carboxamide], the Ki in experiment [1] was no more than 50 nM; in experiment [2], no less than 1000 nM; in experiment [3], no less than 5000 nM.

In the case of `CC1(C)c2[nH]nc(NC(=O)C3([Si](C)(C)C)CCC3)c2CN1C(=O)Nc1c(F)ccc2ccoc12` [IV-1049, N-(6-Fluorobenzofuran-7-yl)-6,6-dimethyl-3-[1-(trimethylsilyl)cyclobutanecarboxamido]-4,6-dihydropyrrolo[3,4-c]pyrazole-5 (1H)-carboxamide], the inhibitory constant (Ki) in experiment [1] was no more than 50 nM; in experiment [2], no less than 1000 nM; in experiment [3], no less than 5000 nM.

Source of the values: US10894798B2, “Substituted dihydropyrrolopyrazole derivative” (UBE INDUSTRIES, LTD., priority 2015, dated 2021).
